From article PMC4535455 (International journal of pharmaceutics, 2015)
≈ marks a conversion by molar mass, not a printed value. Where a SMILES comes first, the peptide text is derived from it. [ ]: non-standard residue; d: D form. Sar = CNCC(=O)O

Legend:
[1] = system: peptide transporters; assay: [3H]-GlySar cellular uptake in MDCK-MDR1 cells; format: cell-based; details: DPBS pH 7.4, 37 °C
[2] = Aqueous solubility studies
[3] = system: MDCK-WT cells; assay: Cytotoxicity by LDH assay; format: cell-based

In the case of `CN(CC(=O)O)C(=O)CN` [Gly-Sar] (H-Gly-[Sar]-OH), the “[3H]-GlySar uptake in the presence of compound (percentage of control)” value (“[3H]-GlySar uptake … (percentage of control)” for short) ([1]; 1 mM) is reported as 40% and the “[3H]-GlySar uptake … (percentage of control)” value ([1]; 2 mM) is reported as 30%.
In the case of `C[C@]12C=CC(=O)C=C1CC[C@@H]1[C@@H]2[C@@H](O)C[C@@]2(C)[C@H]1CC[C@]2(O)C(=O)CO` [prednisolone, Prednisolone], the solubility at 4 h [2] is reported as 310 ± 30 µg/mL (≈ 860 µM), the “Cytotoxic effects (LDH release)” value ([3]; 5–250 µM, 4 h) is reported as “did not generate any cytotoxic effects” and the “[3H]-GlySar uptake … (percentage of control)” value ([1]; 100 µM) is reported as “No significant inhibition”.
In the case of Triton x-100, the “Cytotoxicity (LDH release)” value ([3]; 1%, positive control) is reported as “displayed significant cytotoxicity” and the “Increase in absorbance (LDH) versus negative control” value ([3]; 1%, positive control) is reported as “About 5 fold”.
